Patent US7323319B2, “RNA containing coenzymes, biotin, or fluorophores, and methods for their preparation and use” (The University of Southern Mississippi, priority 2003, dated 2008)
Read-outs that look alike come from different tables or passages of the source.

Experiments:
T7 RNA polymerase [1] = biological target: T1, T7 RNA polymerase (Escherichia phage T7, UniProt P00573); format: biochemical; conditions: for effect of 3′ blocked adenosine derivatives on normal RNA transcription and on CoA-RNA transcription: 4 mM, without coenzymes or in the presence of 4 mM De-P-CoA; for relative CoA-RNA yield / total RNA yield relative to RNA obtained at 1 mM ATP and 0 mM De-P-CoA: 4 mM De-P-CoA
Description: To physically separate CoA-RNA from pppRNA by PAGE, a different RNA sequence of 35 nucleotides was designed to allow a specific DNazyme (Santoro, S. W. and Joyce, G. F., Proc. Natl. Acad. Sci. USA 94: 4262-4266 (1997)) cleavage after transcription. Two DNA oligonucleotides with the sequence of 5′-[…]-3′ (SEQ ID NO:2) and 5′-[…]-3′ (SEQ ID NO:3) were used to construct (by PCR) a DNA duplex template, from which a 35 nt RNA sequence of 5′-[…]-3′ (SEQ ID NO:4) was transcribed. A DNazyme (with the sequence of 5′-[…]-3′; SEQ ID NO:5) was then used to specifically cleave off a portion of the 3′ heterogeneous ends of both CoA-RNA and pppRNA, yielding a homogeneous length of 25 nt CoA-RNA and pppRNA. Similar transcription conditions were used with the exception of different concentrations of ATP. Transcribed RNA (about […]) was incubated with […] DNazyme for 60 minutes at 37° C. in 50 mM MgCl2 and 50 mM Tris, pH 8.0. RNA was then analyzed by 12% denaturing PAGE.
(§1) After polyacrylamide gel electrophoresis, individual RNA bands were visualized through phosphorimaging (Molecular Imager, Bio-Rad Laboratories, Hercules, Calif.). Quantitation of different RNA bands was achieved through profile integration after horizontal background subtraction. Coenzyme-RNA (CoE-RNA) yields were calculated based on relative intensity of pppRNA bands (N, N+1, and N+2 bands) in the absence of coenzymes. To confirm the validity of the calculation, DNazyme-cleaved pppRNA and CoA-RNA were quantitated directly after gel resolution of CoA-RNA from pppRNA. In addition, CoA-RNA yield was determined independently by thiopropyl Sepharose 6B affinity chromatography based on its free sulfhydryl group.
To physically resolve coenzyme-RNA from pppRNA by gel, a DNazyme (Santoro, S. W., and Joyce, G. F., Proc. Natl. Acad. Sci. USA, 94: 4262-4266 (1997)) was designed to trim off the 3′ heterogeneous ends of RNA.

T7 RNA polymerase [2] = biological target: T1, T7 RNA polymerase; experiment: Coenzyme-initiated in vitro transcription of CoES7 RNA under T7 class II promoter, PAGE and phosphorimaging; format: biochemical; conditions: for relative intensity of N band RNA / relative intensity of N+1 band RNA / relative intensity of N+2 band RNA: 4 mM coenzyme, 1 mM each NTP, CoES7 RNA, 2 hours 37° C.; for total RNA yields versus standard transcription conditions: higher than 8 mM coenzyme
Method: Transcription promoter sequence was derived from the T7 class II promoter (φ2.5) (FIG. 1) (Dunn, J. J., and Studier, F. W., J. Mol. Biol. 166: 477-535 (1983)). The RNA sequence was from a previously isolated coenzyme-synthesizing ribozyme (Huang, F., et al., Biochemistry 39: 15548-15555 (2000)), CoES7, with the sequence of 5′-[…]-3′ (SEQ ID NO:1). Transcription was carried out under the following standard conditions: 1 mM each of ATP, UTP, GTP, and CTP, 40 mM Tris (pH 8.0), 6 mM MgCl2, 2 mM spermidine, 0.01% Triton X-100, 5 mM DTT, 0.2 unit/mL RNase inhibitor, […] DNA templates, and 5 unit/mL T7 RNA polymerase. In addition, different concentrations of coenzymes, De-P-CoA, NAD, and FAD were included to initiate transcription. For quantitation purposes, [α-^32P]ATP (NEN Life Science, Boston, Mass.) was also added to transcription solutions to internally label RNA transcripts. All transcription reactions were allowed to proceed for 2 hours at 37° C. before product analysis by 8% denaturing PAGE.
Transcription of CoES7 RNA was carried out under the standard conditions, with the addition of various concentrations of coenzymes. After fractionation by PAGE, different RNA bands became clearly visible. In the absence of any coenzymes (lane 1), transcription produced three pppRNA bands in decreasing order: the full-length RNA transcripts (N band), N+1, and N+2 bands (with one and two extra nucleotides added at the 3′ end of full-length RNA). Their relative yields were 59%, 35%, and 6% (from N to N+2), respectively. When one of the three coenzymes, De-P-CoA, NAD, and FAD, was added to the transcription solution (lanes 2-4), no additional RNA bands were generated. However, the relative intensity of the three RNA bands in each lane changed considerably when compared with that of lane 1. […] In the presence of 4 mM De-P-CoA (lane 2), the relative intensity of the three bands changed to 40%, 45%, and 15% (from N to N+2). The relative RNA band intensity were 30%, 49%, and 21% for both NAD- and FAD-initiated transcription (lanes 3 and 4). These changes in RNA band relative intensity resulted from the incorporation of coenzymes (De-P-CoA, NAD, and FAD) into RNA. When one of these coenzymes is incorporated to the 5′ end of RNA, the coenzyme-linked RNA (CoE-RNA) behaves as if an extra normal nucleotide is added to the pppRNA. Therefore, the N band CoE-RNA co-migrates with the N+1 band pppRNA, while the N+1 band CoE-RNA and the N+2 band pppRNA run together in the gel. The N+2 band CoE-RNA was barely visible because of its low intensity. To confirm the incorporation of coenzymes into RNA under the class II promoter, three independent experiments were performed: resolution of CoA-RNA from pppRNA by gel after DNazyme cleavage, measurement of free sulfhydryl group of CoA-RNA, and fluorescence emission spectrum of FAD-RNA.

T7 RNA polymerase [3] = biological target: T1, T7 RNA polymerase; conditions: CoES7 RNA prepared under 1 mM ATP and 4 mM De-P-CoA
Method: as §1

[4] = Fluorescence emission spectra of FAD-RNA and free FAD; format: physicochemical; conditions: 0.5 M sodium acetate, pH 5.2
[5] = 0.2-0.5 mM ATP and 4 mM De-P-CoA
[6] = different coenzyme concentrations (De-P-CoA: low concentrations; FAD: especially >4 mM), FIGS. 4A-4C

T1 sequence (P00573 whole entry): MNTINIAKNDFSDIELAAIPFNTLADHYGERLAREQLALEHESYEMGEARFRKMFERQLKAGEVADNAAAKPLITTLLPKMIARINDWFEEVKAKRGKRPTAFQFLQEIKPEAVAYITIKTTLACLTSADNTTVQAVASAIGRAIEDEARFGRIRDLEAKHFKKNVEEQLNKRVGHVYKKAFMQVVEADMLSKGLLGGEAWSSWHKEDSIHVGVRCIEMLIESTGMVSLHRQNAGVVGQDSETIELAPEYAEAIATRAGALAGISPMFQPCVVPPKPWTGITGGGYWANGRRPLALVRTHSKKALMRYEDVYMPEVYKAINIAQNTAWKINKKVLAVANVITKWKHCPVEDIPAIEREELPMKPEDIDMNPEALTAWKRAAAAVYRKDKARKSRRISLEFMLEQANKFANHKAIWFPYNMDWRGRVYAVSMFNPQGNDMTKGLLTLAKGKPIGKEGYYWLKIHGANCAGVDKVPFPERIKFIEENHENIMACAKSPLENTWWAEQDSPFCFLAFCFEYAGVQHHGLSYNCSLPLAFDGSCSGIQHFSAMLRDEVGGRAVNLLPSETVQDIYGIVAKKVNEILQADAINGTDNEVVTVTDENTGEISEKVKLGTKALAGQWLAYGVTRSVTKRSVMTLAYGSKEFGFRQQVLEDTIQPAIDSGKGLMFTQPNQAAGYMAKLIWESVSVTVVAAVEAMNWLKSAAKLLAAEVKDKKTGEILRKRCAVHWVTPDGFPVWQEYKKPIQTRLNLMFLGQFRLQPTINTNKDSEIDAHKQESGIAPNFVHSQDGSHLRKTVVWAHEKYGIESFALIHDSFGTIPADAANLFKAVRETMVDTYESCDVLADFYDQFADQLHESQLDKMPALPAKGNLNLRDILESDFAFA

**Q.** Which “effect of 3′ blocked adenosine derivatives on normal RNA transcription and on CoA-RNA transcription” value (T7 RNA polymerase [1]) does the source give for `CC(C)(COP(=O)(O)OP(=O)(O)OC[C@H]1O[C@@H](n2cnc3c(N)ncnc32)[C@H](O)[C@@H]1OP(=O)(O)O)[C@@H](O)C(=O)NCCC(=O)NCCS` [CoA, coenzyme A] here?
**A.** neither CoA nor 3′ AMP has detectable effect

**Q.** Which “effect of 3′ blocked adenosine derivatives on normal RNA transcription and on CoA-RNA transcription” value (T7 RNA polymerase [1]) does the source give for `Nc1ncnc2c1ncn2[C@@H]1O[C@H](CO)[C@@H](OP(=O)(O)O)[C@H]1O` [3′ AMP] here?
**A.** neither CoA nor 3′ AMP has detectable effect

**Q.** For `CC(C)(COP(=O)(O)OP(=O)(O)OC[C@H]1O[C@@H](n2cnc3c(N)ncnc32)[C@H](O)[C@@H]1O)[C@@H](O)C(=O)NCCC(=O)NCCS` [De-P-CoA, 3′-Dephospho coenzyme A], which “relative CoA-RNA yield” value (T7 RNA polymerase [1]; 0.1 mM ATP) is on record?
**A.** 56%

**Q.** What about the “total RNA yield relative to RNA obtained at 1 mM ATP and 0 mM De-P-CoA” value (T7 RNA polymerase [1]; 0.1 mM ATP) of the same compound?
**A.** 12%

**Q.** What about the “relative CoA-RNA yield” value (T7 RNA polymerase [1]; 0.2 mM ATP) of the same compound?
**A.** 52%

**Q.** And the “total RNA yield relative to RNA obtained at 1 mM ATP and 0 mM De-P-CoA” value (T7 RNA polymerase [1]; 0.2 mM ATP)?
**A.** 44%

**Q.** And the “relative CoA-RNA yield” value (T7 RNA polymerase [1]; 0.5 mM ATP)?
**A.** 46%

**Q.** And the “total RNA yield relative to RNA obtained at 1 mM ATP and 0 mM De-P-CoA” value (T7 RNA polymerase [1]; 0.5 mM ATP)?
**A.** 85%

**Q.** What about the “total RNA yield relative to RNA obtained at 1 mM ATP and 0 mM De-P-CoA” value (T7 RNA polymerase [1]; 1 mM ATP) of the same compound?
**A.** 110%

**Q.** What about the “relative CoA-RNA yield” value (T7 RNA polymerase [1]; 1 mM ATP, 1 mM GTP, CTP, UTP) of the same compound?
**A.** 33%

**Q.** What about the “CoA-RNA produced by transcription” value (T7 RNA polymerase [1]; [5]) of the same compound?
**A.** over 50%

**Q.** What about the “reduction in total RNA yields” value (T7 RNA polymerase [1]; [5]) of the same compound?
**A.** 20-50%

**Q.** And the “relative intensity of N band RNA” value (T7 RNA polymerase [2])?
**A.** 40%

**Q.** What about the “relative intensity of N+1 band RNA” value (T7 RNA polymerase [2]) of the same compound?
**A.** 45%

**Q.** What about the “relative intensity of N+2 band RNA” value (T7 RNA polymerase [2]) of the same compound?
**A.** 15%

**Q.** What about the “coenzyme-RNA (CoE-RNA) yield over total RNA synthesized” value (T7 RNA polymerase [2]; 4-8 mM coenzyme, standard transcription conditions) of the same compound?
**A.** 30-35%

**Q.** And the “effect on total RNA yield (transcription)” value (shortened to “effect on total RNA yield”) (T7 RNA polymerase [2]; [6])?
**A.** stimulates transcription to some extent

**Q.** And the “effect on total RNA yield” value (T7 RNA polymerase [2]; higher concentrations of De-P-CoA)?
**A.** eventually becomes inhibitory

**Q.** What about the “total RNA yields versus standard transcription conditions” value (T7 RNA polymerase [2]) of the same compound?
**A.** significantly lower

**Q.** What about the “loaded RNA retained on thiopropyl Sepharose 6B column (CoA-RNA yield)” value (T7 RNA polymerase [3]) of the same compound?
**A.** 30-35%

**Q.** For `Cc1cc2nc3c(=O)[nH]c(=O)nc-3n(C[C@H](O)[C@H](O)[C@H](O)COP(=O)(O)OP(=O)(O)OC[C@H]3O[C@@H](n4cnc5c(N)ncnc54)[C@H](O)[C@@H]3O)c2cc1C` [FAD, flavin adenine dinucleotide], which “enhancement of fluorescence intensity by urea” value ([4]; 4 M urea) is on record?
**A.** 1.7 fold

**Q.** What about the “enhancement of fluorescence intensity by urea” value ([4]; 7 M urea) of the same compound?
**A.** 2.7 fold

**Q.** And the “relative intensity of N band RNA” value (T7 RNA polymerase [2])?
**A.** 30%

**Q.** What about the “relative intensity of N+1 band RNA” value (T7 RNA polymerase [2]) of the same compound?
**A.** 49%

**Q.** And the “relative intensity of N+2 band RNA” value (T7 RNA polymerase [2])?
**A.** 21%

**Q.** And the “effect on total RNA yield” value (T7 RNA polymerase [2]; [6])?
**A.** somewhat inhibitory effect

**Q.** What about the “total RNA yields versus standard transcription conditions” value (T7 RNA polymerase [2]) of the same compound?
**A.** significantly lower
